# Assay results published in patent US11458132B2, “Quinolin-2(1H)-one inhibitors of Late SV40 Factor” (TRUSTEES OF BOSTON UNIVERSITY, priority 2020, dated 2022).
# How the values were obtained:
# HT-29 cells = assay: Allogeneic HT-29 xenograft model in athymic mice; type: in vivo
# Description: (§1) Syngeneic and allogeneic xenograft models: We used 8-12 weeks-old athymic female mice for the allogeneic xenograft model and C57BL/6 mice for a syngeneic xenograft model, as described previously^26,27. All the mice were obtained from The Jackson Laboratory and housed at Boston University Medical Center based on the approval from the Institutional Animal Care and Use Committee. Each mouse was implanted subcutaneously on the dorsal surface and was monitored for tumor growth as measured with a VWR Digital Caliper. The tumor volume was calculated twice a week using the equation: length×width×height.
# (§2) The mice were randomly separated into two groups once tumor volumes reached 100 mm^3. The FQI2-34 was suspended in a mixture of ethanol and DMSO. The mixture was agitated until the compound had completely dissolved. This solution was further diluted in 20% PEG 400 and water to give a final concentration of 2 mg/ml. FQI2-34 or vehicle was injected intraperitoneally daily at 5 mg/kg for 5 days, followed by a break for 2 days. After 21 days, both groups of mice were sacrificed, and the tumors were harvested.
# (§3) Cell culture and other reagents: HT-29 cells were obtained from ATCC and grown in the Roswell Park Memorial Institute (RPMI) medium supplemented with 10% FBS and penicillin and streptomycin. Cells were injected with the growth-factor poor Matrigel (Millipore, catalogue number DLW354263) using a 23-gauge needle for a total volume of 200 microliters. The MC38 cell line was obtained from ATCC and grown in RPMI medium supplemented with 10% FBS and penicillin and streptomycin.
# IHC was performed on the paraffin-embedded tumors as described previously^26-28. The manufacturer's protocol was used along with reagents from the Abcam Mouse and Rabbit Specific HRP/DAB IHC Detection Kit—Micro-polymer (ab236466). Primary antibodies and their dilutions used to detect the respective proteins were: Axin2 (Abcam, #ab32197, 1:100), β-catenin (BD Biosciences, #610154, 1:100), LSF (BD Biosciences, #610818, 1:100), SOX9 (Abcam, #ab185230, 1:100), Ki-67 (Cell Signaling, #8D5, 1:100). […]
# (§4) All images and quantification were performed using the Nikon Eclipse TE2000 Inverted Microscope with the color camera at the Boston University School of Medicine (BUSM) Imaging Core. Random high-power field (hpf) images of every tumor sample were obtained. For quantification the signal was converted to grayscale, and the number and intensity of pixels were analyzed as integrated density by using Fiji. The integrated density of all the images was normalized to its area. The images were processed in ImageJ (National Institutes of Health, Bethesda, Md.) to quantitate the expression of SOX-9, AXIN-2, and LSF. Regions of interest were drawn and the expression was measured using integrated density normalized to the surface area. The average normalized integrated image densities from multiple hpfs were used to perform the correlational analysis between expression levels of pairs of proteins.
# LSF and β-catenin = molecular target: T1, LSF and β-catenin (Homo sapiens, UniProt Q12800); assay: Immunoprecipitation of β-catenin probed for LSF in CRC cells; type: cell-based; conditions: 1 μM, 16 hours, HT-29 and HCT-116 cells
# T1 construct: In both these cell lines, LSF co-immunoprecipitated with β-catenin; endogenous in cells; host or cells: HT-29 and HCT-116
# T1 sequence (Q12800 1-502): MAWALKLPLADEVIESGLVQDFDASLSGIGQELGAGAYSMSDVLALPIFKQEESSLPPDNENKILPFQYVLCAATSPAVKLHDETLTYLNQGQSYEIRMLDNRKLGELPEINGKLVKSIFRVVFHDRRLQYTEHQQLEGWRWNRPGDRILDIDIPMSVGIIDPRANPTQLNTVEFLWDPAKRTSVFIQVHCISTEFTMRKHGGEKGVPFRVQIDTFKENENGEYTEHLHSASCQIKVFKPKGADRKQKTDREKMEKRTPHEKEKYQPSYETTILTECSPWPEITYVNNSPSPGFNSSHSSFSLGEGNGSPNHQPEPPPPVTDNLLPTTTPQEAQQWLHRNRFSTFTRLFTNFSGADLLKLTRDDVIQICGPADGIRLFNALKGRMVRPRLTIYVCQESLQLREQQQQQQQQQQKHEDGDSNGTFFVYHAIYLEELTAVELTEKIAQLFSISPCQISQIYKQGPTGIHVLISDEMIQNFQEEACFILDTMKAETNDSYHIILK
# Description: Immunoprecipitation: The CRC cells were harvested. Proteins of interest were immunoprecipitated using the indicated antibodies at 1:100 concentration. The eluents were resolved by SDS polyacrylamide gel electrophoresis and probed with the indicated antibodies. All the antibodies for immunoblot and immunoprecipitation were acquired from Cell Signaling and were used at the recommended concentrations.
# MC38 cells = assay: Syngeneic MC38 xenograft model in C57BL/6 mice; type: in vivo
# Description: as §1, §2, §3
# IHC was performed on the paraffin-embedded tumors as described previously^26-28. The manufacturer's protocol was used along with reagents from the Abcam Mouse and Rabbit Specific HRP/DAB IHC Detection Kit—Micro-polymer (ab236466). Primary antibodies and their dilutions used to detect the respective proteins were: Axin2 (Abcam, #ab32197, 1:100), β-catenin (BD Biosciences, #610154, 1:100), LSF (BD Biosciences, #610818, 1:100), SOX9 (Abcam, #ab185230, 1:100), Ki-67 (Cell Signaling, #8D5, 1:100).
# as §4
# [1] = xenografts, immunohistochemistry
smiles,measurement,setting,value
"CCOc1cc(N(C)C)ccc1-c1cc(=O)[nH]c2cc3c(cc12)OCO3 [FQI2-34, 8-(4-(dimethylamino)-2-ethoxyphenyl)-[1,3]dioxolo[4,5-g]quinolin-6(5H)-one]",tumor volumes compared to controls,"HT-29 cells; day 9, day 12 and day 17",significantly lower tumor volumes
same,histopathological analysis of tumors (H & E),HT-29 cells; day 21,lower tumor mass organized in luminal regions interspersed within the interstitium
same,"tumor volume, treated versus control",HT-29 cells; day 21,2 times
same,tumor volume,"HT-29 cells; day 21, 5 mg/kg intraperitoneally daily for 5 days each week",1120±193 mm^3
same,"AXIN2, CCND1 and SOX9 by quantitative RT-PCR",HT-29 cells; xenograft lysates at end of treatment,significantly downregulated
same,increase in TUNEL-positive cells,HT-29 cells; xenografts,1.8 fold
same,"CRC cells with nuclear β-catenin, lower than control",HT-29 cells; [1],4 fold
same,downregulation of Ki-67,HT-29 cells; [1],4.2 fold
same,reduction in AXIN2 (integrated density),HT-29 cells; [1],5 fold
same,reduction in SOX9 (integrated density),HT-29 cells; [1],3.2 fold
same,interaction of LSF and β-catenin (co-immunoprecipitation),LSF and β-catenin,consistently reduced this interaction
same,"tumor volumes, lower than controls",MC38 cells; day 14 and day 21,~2 fold
same,CRC mass on H&E stain,MC38 cells; xenografts,substantial reduction in CRC mass
same,Ki-67 levels,MC38 cells; [1],suppressed
same,reduction in AXIN2 expression levels,MC38 cells; [1],~2 fold
same,reduction in SOX9 expression levels,MC38 cells; [1],~2 fold
same,reduction in number of cells with nuclear β-catenin,MC38 cells; [1],2.3 fold
